Marks after values point to notes of the source that are not given here.
Key:
[1] = test system: mouse macrophages (J774A.1); experiment: In vitro cytotoxic activity (resazurin) in macrophages; type: cell-based; conditions: complex solubilized in DMSO; J774A.1 macrophages, 24 h
Protocol: The cytotoxicity of the complexes solubilized in DMSO and loaded into the NLS was measured in mouse macrophages (J774A.1 ATCCb TIB-67) as described by [Pavan et al. (2010a)]. The cells were incubated at 37°C with 5% CO2 on plates with a surface area of 12.50 cm^2 in 10 ml RPMI (Vitrocell®, Campinas, SP, Brazil) supplemented with 10% fetal bovine serum, gentamicin sulfate (50 mg l^-1) and amphotericin B (2 mg l^-1). This technique consists of collecting the cells using a scraper, centrifuging (2000 rpm for 5 min), counting the number of cells in a Newbauer chamber, and then adjusting the concentration to 3.4 × 10^5 cells ml^-1 in RPMI. Next, 200 μl suspension was deposited into each well of a 96-well microplate and incubated at 37°C in an atmosphere of 5% CO2 for 24 h to allow the cells to attach to the plate. Dilutions of the test compounds were prepared to obtain concentrations from 500 to 1.95 μg ml^-1. […] The cytotoxicity of the compounds was determined by adding 30 μl developer of resazurin and read after a 6-h incubation. The reading was performed in a microplate Cytation 3 (Biotek®, Winooski, VT, United States) reader using excitation and emission filters at wavelengths of 530 and 590 nm, respectively. The cytotoxicity (IC50) was defined as the highest concentration of compound inhibiting the growth of at least 50% of the cells and was obtained from non-linear regression using GraphPad Prism 7.0 for Windows.

[2] = test system: M. tuberculosis H37Rv ATCC 27294; experiment: Resazurin Microtiter Assay (REMA), MIC90 against M. tuberculosis H37Rv; conditions: for MIC90 DMSO: complex solubilized in DMSO, mean ± SD; for Standard MIC Pre-determined: repeats Table 2 values, mean ± SD of three assays

Compound | IC50 DMSO [1] | MIC90 DMSO [2] | Standard MIC Pre-determined [2]
Cc1ccnc(-c2cc(C)ccn2)c1.F[P-](F)(F)(F)(F)F.O=C([O-])c1ccccn1.[Ru+2].c1ccc(P(CCCCP(c2ccccc2)c2ccccc2)c2ccccc2)cc1 [SCAR2, [Ru(pic)(dppb)(Me-bipy)]PF6] | 6.51 ± 0.67^a μg mL^-1 | 1.08 ± 0.12^a μg mL^-1 | 1.08 ± 0.12 µg/mL
[Ru(pic)(dppb)(phen)]PF6 [SCAR4] | 7.57 ± 0.13^a μg mL^-1 | 1.34 ± 0.08^a μg mL^-1 | 1.34 ± 0.08 µg/mL
F[P-](F)(F)(F)(F)F.O=C([O-])c1ccccn1.[Ru+2].c1ccc(P(CCP(c2ccccc2)c2ccccc2)c2ccccc2)cc1.c1ccc(P(CCP(c2ccccc2)c2ccccc2)c2ccccc2)cc1 [SCAR5, cis-[Ru(pic)(dppe)2]PF6] | 3.88 ± 0.98^a μg mL^-1 | 1.32 ± 0.03^a μg mL^-1 | 1.32 ± 0.03 µg/mL
[Ru(pic)(dppe)(phen)]PF6 [SCAR7] | 14.36 ± 1.57^a μg mL^-1 | 0.98 ± 0.05^a μg mL^-1 | 0.98 ± 0.05 µg/mL
[Ru(pic)(dppb)(bipy)]PF6 [SCAR1] | 22.26 ± 1.85^a μg mL^-1 | 1.18 ± 0.08^a μg mL^-1 | 1.18 ± 0.08 µg/mL

Source: article PMC6291527, “A Nanostructured Lipid System to Improve the Oral Bioavailability of Ruthenium(II) Complexes for the Treatment of Infections Caused by Mycobacterium tuberculosis” (Frontiers in Microbiology, 2018)
